One block for each molecule: values may come before it.
Legend:
CYP2B6 [1] = target: T1, CYP2B6 (Homo sapiens, UniProt P20813); assay: (§1) Mechanism based inhibition of human cytochrome P450 2B6 measured by N-(3,5-dichloro-4-pyridyl)-3- (cyclopentoxy)-4- methoxybenzamide (DCMB) hydroxylase activity; assay type: ADME; conditions: human
T1 sequence (P20813 whole entry): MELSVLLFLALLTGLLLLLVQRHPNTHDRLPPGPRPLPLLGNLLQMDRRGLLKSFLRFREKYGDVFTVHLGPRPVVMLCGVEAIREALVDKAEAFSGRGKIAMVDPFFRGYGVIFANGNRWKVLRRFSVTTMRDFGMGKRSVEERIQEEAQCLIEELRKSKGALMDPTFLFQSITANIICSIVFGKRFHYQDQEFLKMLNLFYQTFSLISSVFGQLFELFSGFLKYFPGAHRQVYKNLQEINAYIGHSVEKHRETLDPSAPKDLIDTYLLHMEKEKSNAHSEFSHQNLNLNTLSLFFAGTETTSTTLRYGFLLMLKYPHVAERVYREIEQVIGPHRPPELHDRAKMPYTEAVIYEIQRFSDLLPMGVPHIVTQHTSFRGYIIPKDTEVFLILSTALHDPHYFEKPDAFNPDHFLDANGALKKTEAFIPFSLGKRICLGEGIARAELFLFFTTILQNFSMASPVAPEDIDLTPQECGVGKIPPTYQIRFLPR

Cytochrome P450 2B6 [2] = target: T2, Cytochrome P450 2B6 (Homo sapiens, UniProt P20813); assay: as §1; assay type: ADME
T2 sequence (P20813 whole entry): T1 sequence (P20813 whole entry)

CYP2D6 [3] = target: T3, CYP2D6 (Homo sapiens, UniProt P10635); assay: (§2) Mechanism based inhibition of human cytochrome P450 2D6 measured by bufurarol hydroxylation using liver microsomes; assay type: ADME, Microsome; conditions: probe bufurarol
Cytochrome P450 2D6 [4] = target: T4, Cytochrome P450 2D6 (Homo sapiens, UniProt P10635); assay: as §2; assay type: ADME, Microsome
CYP3A4 [5] = target: T5, CYP3A4 (Homo sapiens, UniProt P08684); assay: (§3) Mechanism based inhibition of human cytochrome P450 3A4 measured by DBF fluorescence; assay type: ADME; conditions: human, probe DBF
Cytochrome P450 3A4 [6] = target: T6, Cytochrome P450 3A4 (Homo sapiens, UniProt P08684); assay: as §3; assay type: ADME
Cytochrome P450 3A4 [7] = target: T6, Cytochrome P450 3A4; assay: Mechanism based inhibition of human cytochrome P450 3A4, partition ratio; assay type: ADME
CYP2D6 [8] = target: T3, CYP2D6; assay: (§4) Mechanism based inhibition of human cytochrome P450 2D6 measured by […] 1'-hydroxylation; assay type: ADME; conditions: human, probe bufurarol
Cytochrome P450 2D6 [9] = target: T4, Cytochrome P450 2D6; assay: as §4; assay type: ADME
Cytochrome P450 3A4 [10] = target: T6, Cytochrome P450 3A4; assay: (§5) Mechanism based inhibition of human cytochrome P450 3A4; assay type: ADME
CYP3A4 [11] = target: T5, CYP3A4; assay: (§6) Mechanism based inhibition of human cytochrome P450 3A4 measured by testosterone 6-beta hydroxylation; assay type: ADME; conditions: human, probe testosterone (6-beta hydroxylation)
Cytochrome P450 3A4 [12] = target: T6, Cytochrome P450 3A4; assay: as §6; assay type: ADME
Cytochrome P450 2C9 = Cytochrome P450 2C9 (Homo sapiens, UniProt P11712); assay: Mechanism based inhibition of human cytochrome P450 2C9 measured by tienilic acid 5-hydroxylation; assay type: ADME
Cytochrome P450 2C8 [13] = target: T7, Cytochrome P450 2C8 (Homo sapiens, UniProt P10632)
T7 sequence (P10632 whole entry): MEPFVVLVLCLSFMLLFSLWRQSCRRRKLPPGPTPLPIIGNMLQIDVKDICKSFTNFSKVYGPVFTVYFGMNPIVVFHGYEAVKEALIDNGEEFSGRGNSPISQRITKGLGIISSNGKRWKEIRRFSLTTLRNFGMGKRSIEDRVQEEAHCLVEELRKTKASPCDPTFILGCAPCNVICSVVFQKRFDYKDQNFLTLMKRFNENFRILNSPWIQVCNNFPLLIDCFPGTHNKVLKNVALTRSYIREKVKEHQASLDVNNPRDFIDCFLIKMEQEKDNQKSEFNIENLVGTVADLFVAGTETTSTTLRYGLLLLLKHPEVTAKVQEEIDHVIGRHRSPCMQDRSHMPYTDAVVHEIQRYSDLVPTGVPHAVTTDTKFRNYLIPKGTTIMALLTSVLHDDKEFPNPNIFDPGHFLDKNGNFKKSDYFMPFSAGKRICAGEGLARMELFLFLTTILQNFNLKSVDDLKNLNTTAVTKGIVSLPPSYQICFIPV
Description: (§10) Mechanism based inhibition of human cytochrome P450 2C8 measured by paclitaxel hydroxylation using human liver microsomes

Cytochrome P450 2C8 [14] = target: T7, Cytochrome P450 2C8; remark: listed apart in the source
Description: (§11) Mechanism based inhibition of human cytochrome P450 2C8 measured by paclitaxel hydroxylation using a recombinant system

CYP2C8 [15] = target: T8, CYP2C8 (Homo sapiens, UniProt P10632); assay: in vitro; conditions: human liver microsomes, probe paclitaxel
T8 sequence (P10632 whole entry): T7 sequence (P10632 whole entry)
Description: as §10

CYP2C8 [16] = target: T8, CYP2C8; assay: in vitro; conditions: recombinant CYP2C8, probe paclitaxel
Description: as §11

CYP2D6 [17] = target: T3, CYP2D6; assay: (§7) Mechanism based inhibition of human cytochrome P450 2D6 measured by dextromethorphan O-demethylation; conditions: human, probe dextromethorphan
Cytochrome P450 2D6 [18] = target: T4, Cytochrome P450 2D6; assay: as §7
CYP2B6 [19] = target: T1, CYP2B6; assay: (§8) Mechanism based inhibition of human cytochrome P450 2B6 using human liver microsomes; conditions: human, human liver microsomes
Cytochrome P450 2B6 [20] = target: T2, Cytochrome P450 2B6; assay: as §8
CYP2B6 [21] = target: T1, CYP2B6; assay: (§9) Mechanism based inhibition of human cytochrome P450 2B6 using recombinant CYP2B6; conditions: human, recombinant CYP2B6
Cytochrome P450 2B6 [22] = target: T2, Cytochrome P450 2B6; assay: as §9
Cytochrome P450 3A4 [23] = target: T6, Cytochrome P450 3A4; assay: as §5; assay type: ADME; remark: listed apart in the source
Cytochrome P450 3A4 [24] = target: T6, Cytochrome P450 3A4; assay: Mechanism based inhibition of human cytochrome P450 3A4 measured by midazolam hydroxylation in vivo; assay type: ADME, organism-based

T4 sequence (P10635 whole entry): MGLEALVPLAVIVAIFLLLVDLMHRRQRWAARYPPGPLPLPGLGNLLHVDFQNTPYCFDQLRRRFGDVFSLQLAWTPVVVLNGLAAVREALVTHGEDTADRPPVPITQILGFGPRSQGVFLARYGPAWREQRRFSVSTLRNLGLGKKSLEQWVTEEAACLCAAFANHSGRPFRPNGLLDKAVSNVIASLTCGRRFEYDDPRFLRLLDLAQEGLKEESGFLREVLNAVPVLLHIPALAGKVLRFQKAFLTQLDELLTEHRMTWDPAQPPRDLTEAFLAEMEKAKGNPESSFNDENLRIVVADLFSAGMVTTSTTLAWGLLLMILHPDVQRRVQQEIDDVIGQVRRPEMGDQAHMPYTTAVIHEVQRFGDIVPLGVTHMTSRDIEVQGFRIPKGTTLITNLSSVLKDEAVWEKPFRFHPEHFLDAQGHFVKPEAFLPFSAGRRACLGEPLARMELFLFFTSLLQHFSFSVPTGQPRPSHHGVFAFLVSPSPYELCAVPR
T3 sequence (P10635 whole entry): as above
T6 sequence (P08684 whole entry): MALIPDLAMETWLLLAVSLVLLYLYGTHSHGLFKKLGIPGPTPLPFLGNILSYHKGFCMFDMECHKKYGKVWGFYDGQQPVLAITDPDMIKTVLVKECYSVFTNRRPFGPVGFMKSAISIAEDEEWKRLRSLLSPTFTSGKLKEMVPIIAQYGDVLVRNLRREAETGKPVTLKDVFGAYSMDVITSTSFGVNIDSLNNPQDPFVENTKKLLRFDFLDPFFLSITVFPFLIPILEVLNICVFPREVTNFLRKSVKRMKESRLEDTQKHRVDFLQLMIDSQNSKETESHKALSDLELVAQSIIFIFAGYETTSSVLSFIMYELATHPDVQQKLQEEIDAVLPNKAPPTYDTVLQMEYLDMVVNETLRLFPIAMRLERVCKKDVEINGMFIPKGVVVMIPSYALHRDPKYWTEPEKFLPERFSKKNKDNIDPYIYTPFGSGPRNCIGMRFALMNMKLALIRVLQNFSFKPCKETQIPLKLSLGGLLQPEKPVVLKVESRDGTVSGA
T5 sequence (P08684 whole entry): as above
Cytochrome P450 2C9, sequence (P11712 whole entry): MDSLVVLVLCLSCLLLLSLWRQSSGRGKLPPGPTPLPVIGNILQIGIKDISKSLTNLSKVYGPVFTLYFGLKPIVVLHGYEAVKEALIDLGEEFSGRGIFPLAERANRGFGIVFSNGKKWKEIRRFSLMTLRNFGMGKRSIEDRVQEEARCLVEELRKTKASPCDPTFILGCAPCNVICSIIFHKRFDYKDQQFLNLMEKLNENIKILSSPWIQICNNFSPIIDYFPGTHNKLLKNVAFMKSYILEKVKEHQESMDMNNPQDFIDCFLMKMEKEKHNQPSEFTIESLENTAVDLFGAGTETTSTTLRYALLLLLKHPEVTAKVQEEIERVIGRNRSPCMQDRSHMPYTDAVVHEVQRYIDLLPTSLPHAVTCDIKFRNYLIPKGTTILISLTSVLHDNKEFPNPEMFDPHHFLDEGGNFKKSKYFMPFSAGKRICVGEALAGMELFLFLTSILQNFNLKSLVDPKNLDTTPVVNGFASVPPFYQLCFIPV

Compound: C#CCOc1cc(C(=O)Nc2c(Cl)cncc2Cl)ccc1OC
kinact (CYP2B6 [1]): 0.0015 s⁻¹ | Ki (Cytochrome P450 2B6 [2]): 5.1 µM

Compound: CCN(CC1CCN(S(C)(=O)=O)CC1)[C@@H](C)Cc1ccc2c(c1)CCO2
kinact (CYP2D6 [3]): 0.38 s⁻¹ | Ki (Cytochrome P450 2D6 [4]): 1.42 µM

Compound: CC(O)CCC(=O)c1ccoc1 (stereo not drawn)
kinact (CYP3A4 [5]): 0.0025 s⁻¹ | Ki (Cytochrome P450 3A4 [6]): 20 µM | Partition ratio (Cytochrome P450 3A4 [7]): 257

kinact (CYP2D6 [8]): 0.003 s⁻¹ | Ki (Cytochrome P450 2D6 [9]): 32 µM | kinact (CYP3A4 [11]): 0.027 s⁻¹ | Ki (Cytochrome P450 3A4 [12]): 7.5 µM | Partition ratio (Cytochrome P450 3A4 [7]): 1.4
Compound: CC(C)(C)NC(=O)[C@@H]1CN(Cc2cnc3occc3c2)CCN1C[C@@H](O)C[C@@H](Cc1ccccc1)C(=O)N[C@H]1c2ccccc2C[C@H]1O
mechanism based inhibition (Cytochrome P450 3A4 [10]): Cytochrome P450 mechanistic inhibitor: PMID 10757976 | mechanism based inhibition (Cytochrome P450 3A4 [12]): Cytochrome P450 mechanistic inhibitor: PMID 8531125

Compound: O=C(O)COc1ccc(C(=O)c2cccs2)c(Cl)c1Cl
mechanism based inhibition (Cytochrome P450 2C9): Cytochrome P450 mechanistic inhibitor: PMID 8944768

Ki (Cytochrome P450 2C8 [13]): 51.2 µM | Ki (Cytochrome P450 2C8 [14]): 1.5 µM | kinact (CYP2C8 [15]): 0.000483 s⁻¹ | kinact (CYP2C8 [16]): 0.00132 s⁻¹
Compound: CCCCc1oc2ccccc2c1C(=O)c1cc(I)c(OCCN(CC)CC)c(I)c1 [AMIODARONE]

Compound: CN/C(=N/CCSCc1nc[nH]c1C)NC#N [CIMETIDINE]
kinact (CYP2D6 [17]): 0.0005 s⁻¹ | Ki (Cytochrome P450 2D6 [18]): 77 µM

kinact (CYP2B6 [19]): 0.00583 s⁻¹ | Ki (Cytochrome P450 2B6 [20]): 0.5 µM | kinact (CYP2B6 [21]): 0.0025 s⁻¹ | Ki (Cytochrome P450 2B6 [22]): 1.1 µM
Compound: COC(=O)[C@H](c1ccccc1Cl)N1CCc2sccc2C1 [CLOPIDOGREL]

Compound: C#C[C@]1(O)C=C[C@H]2[C@@H]3CCC4=CC(=O)CC[C@@H]4[C@H]3CC[C@@]21CC [GESTODENE]
mechanism based inhibition (Cytochrome P450 3A4 [10]): Cytochrome P450 mechanistic inhibitor: PMID 9385444 | mechanism based inhibition (Cytochrome P450 3A4 [23]): Cytochrome P450 mechanistic inhibitor: PMID 2133086 | mechanism based inhibition (Cytochrome P450 3A4 [24]): Cytochrome P450 mechanistic inhibitor: PMID 11012556

Source: ChEMBL document CHEMBL1743341, “Cytochrome p450 enzymes mechanism based inhibitors: common sub-structures and reactivity” (Curr Drug Metab, 2005)
